{
  "source": "patent US20220202810A1",
  "about": "(Lake O'Hara LLC, priority 2020, published 2022)",
  "key": {"[1]": {"conditions": "cited from earlier work"}, "[2]": {"experiment": "PBPK modeling of schizophrenia patients, FDA label and modified dosing regimens", "design": "species or system human", "conditions": "for Days Reduced to Reach Pharmacokinetic Endpoints: EC50 / Days Reduced to Reach Pharmacokinetic Endpoints: EC80 / Days Reduced to Reach Pharmacokinetic Endpoints: Steady State: modified regimen of Table F vs FDA label, Obese", "description": "PBPK Modeling of Patients Dosed with Brexpiprazole According to the FDA Label\nAlthough the PBPK modeling was based on the dosing regimen for schizophrenia according to the FDA label (REXULTI®, 3/2020), pharmacokinetic parameters are dose-dependent and expected to be similar in MDD.\nIn order to simulate brexpiprazole under various conditions, a whole-body PBPK model was constructed to capture the drug's kinetics in major tissues. Model tissue compartments included adipose, bone, brain, large intestine, small intestine, heart, kidney, liver, lung, muscle, spleen, stomach, and skin tissues, as well as venous and arterial blood compartments. In order to accurately capture first-pass clearance effects on the drug, the model also included correct representation of the gastrointestinal tract organs and the liver. […] Drug distribution into each tissue compartment was modeled assuming perfusion-limited kinetics, with partitioning into tissue described by a partition coefficient (Kp) estimated using methods described by Poulin and Theil (2002). Brexpiprazole-specific biochemical parameters such as the log of octanol:water partition coefficient (logP), negative log acid dissociation constant (pKa), fraction unbound in the plasma (fup), blood:plasma concentration ratio (BP), and clearance were obtained from literature; additional physiochemical properties used to calculate Kps were obtained via DrugBank. […] Simulations were carried out in a virtual population of 500 normal-weight and 500 obese individuals with age- and sex-specific physiological parameters (i.e. tissue flows and volumes) sampled from the National Health and Nutrition Examination Survey (NHANES) dataset.\nPBPK Modeling of Schizophrenia Patients Treated with Higher Doses According to Modified Methods\nA modified dosing regimen was developed so that obese and CYP2D6 PM patients reach therapeutic levels earlier (Table F). […] On day 8, patients returned to administering the recommended dose once daily. […] On day 15, patients returned to administering the recommended dose once daily."}, "[3]": {"conditions": "cited from earlier work", "remark": "listed apart in the source"}, "[4]": {"conditions": "brexpiprazole patients; cited from earlier work"}},
  "note": "Where two headings read alike, the source gives them in different places.",
  "data": [
    {"compound": "O=c1ccc2ccc(OCCCCN3CCN(c4cccc5sccc45)CC3)cc2[nH]1", "note": "[Brexpiprazole, 7-{4-[4-(1-Benzothiophen-4-yl)piperazin-1-yl]butoxy}quinolin-2(1H)-one]", "values": [
      {"measurement": "decrease of baseline clearance by CYP2D6 PM status", "setting": "[1]; CYP2D6 PM", "result": "~30", "unit": "%"},
      {"measurement": "brexpiprazole clearance due to CYP3A4", "setting": "[1]; based on the literature", "result": 46.7, "unit": "%"},
      {"measurement": "clearance due to other routes", "setting": "[1]; based on the literature", "result": 10, "unit": "%"},
      {"measurement": "remaining clearance due to CYP2D6", "setting": "[1]; based on the literature", "result": 43.3, "unit": "%"},
      {"measurement": "effect of weight on the pharmacokinetics of brexpiprazole", "setting": "[1]; previous studies, no patients with BMI>35 kg/m^2", "result": "less than 20%"},
      {"measurement": "renal clearance", "setting": "[1]; share of brexpiprazole clearance", "result": "~1", "unit": "%"},
      {"measurement": "Days Reduced to Reach Pharmacokinetic Endpoints: EC50", "setting": "[2]; EM", "result": 3, "unit": "days"},
      {"measurement": "Days Reduced to Reach Pharmacokinetic Endpoints: EC80", "setting": "[2]; EM", "result": 3, "unit": "days"},
      {"measurement": "Days Reduced to Reach Pharmacokinetic Endpoints: Steady State", "setting": "[2]; EM", "result": -4, "unit": "days"},
      {"measurement": "Days Reduced to Reach Pharmacokinetic Endpoints: EC50", "setting": "[2]; PM", "result": 2, "unit": "days"},
      {"measurement": "Days Reduced to Reach Pharmacokinetic Endpoints: EC80", "setting": "[2]; PM", "result": 5, "unit": "days"},
      {"measurement": "Days Reduced to Reach Pharmacokinetic Endpoints: Steady State", "setting": "[2]; PM", "result": -29, "unit": "days"},
      {"measurement": "time to reach therapeutic concentrations vs once daily dosing", "setting": "[2]; schizophrenia, normal-weight CYP2D6 PM, Modified Dosing Regimen 3", "result": "three days faster"},
      {"measurement": "time to reach therapeutic concentrations vs FDA label dosing", "setting": "[2]; schizophrenia, obese CYP2D6 EM, twice the starting and recommended daily doses for the first 7 days", "result": "three days faster"},
      {"measurement": "time to reach therapeutic concentrations vs once daily dosing", "setting": "[2]; schizophrenia, obese CYP2D6 PM, twice the starting and recommended daily doses for the first 14 days", "result": "five days faster"},
      {"measurement": "AUC Observed", "setting": "[3]; NDA Study1, IV, 0.25 mg", "result": 172, "unit": "ng·h/mL"},
      {"measurement": "Cmax Observed", "setting": "[3]; NDA Study1, IV, 0.25 mg", "result": 4.73, "unit": "ng/mL"},
      {"measurement": "Tmax Observed", "setting": "[3]; NDA Study1, IV, 0.25 mg", "result": 1, "unit": "h"},
      {"measurement": "AUC Observed", "setting": "[3]; NDA Study1, PO, 0.2 mg", "result": 123, "unit": "ng·h/mL"},
      {"measurement": "Cmax Observed", "setting": "[3]; NDA Study1, PO, 0.2 mg", "result": 2.62, "unit": "ng/mL"},
      {"measurement": "Tmax Observed", "setting": "[3]; NDA Study1, PO, 0.2 mg", "result": 2, "unit": "h"},
      {"measurement": "AUC Observed", "setting": "[3]; NDA Study1, PO, 0.5 mg", "result": 287, "unit": "ng·h/mL"},
      {"measurement": "Cmax Observed", "setting": "[3]; NDA Study1, PO, 0.5 mg", "result": 6.64, "unit": "ng/mL"},
      {"measurement": "Tmax Observed", "setting": "[3]; NDA Study1, PO, 0.5 mg", "result": 4, "unit": "h"},
      {"measurement": "AUC Observed", "setting": "[3]; NDA Study1, PO, 1 mg", "result": 636, "unit": "ng·h/mL"},
      {"measurement": "Cmax Observed", "setting": "[3]; NDA Study1, PO, 1 mg", "result": 11.70, "unit": "ng/mL"},
      {"measurement": "Tmax Observed", "setting": "[3]; NDA Study1, PO, 1 mg", "result": 6, "unit": "h"},
      {"measurement": "AUC Observed", "setting": "[3]; NDA Study1, PO, 2 mg", "result": 1690, "unit": "ng·h/mL"},
      {"measurement": "Cmax Observed", "setting": "[3]; NDA Study1, PO, 2 mg", "result": 22.10, "unit": "ng/mL"},
      {"measurement": "Tmax Observed", "setting": "[3]; NDA Study1, PO, 2 mg", "result": 6, "unit": "h"},
      {"measurement": "AUC Observed", "setting": "[3]; NDA Study2, PO, 2 mg", "result": 2160, "unit": "ng·h/mL"},
      {"measurement": "Cmax Observed", "setting": "[3]; NDA Study2, PO, 2 mg", "result": 24.60, "unit": "ng/mL"},
      {"measurement": "Tmax Observed", "setting": "[3]; NDA Study2, PO, 2 mg", "result": 4, "unit": "h"},
      {"measurement": "AUC Observed", "setting": "[3]; NDA Study2, PO, 4 mg", "result": 2760, "unit": "ng·h/mL"},
      {"measurement": "Cmax Observed", "setting": "[3]; NDA Study2, PO, 4 mg", "result": 47.20, "unit": "ng/mL"},
      {"measurement": "Tmax Observed", "setting": "[3]; NDA Study2, PO, 4 mg", "result": 6, "unit": "h"},
      {"measurement": "AUC Observed", "setting": "[3]; NDA Study2, PO, 6 mg", "result": 5230, "unit": "ng·h/mL"},
      {"measurement": "Cmax Observed", "setting": "[3]; NDA Study2, PO, 6 mg", "result": 71.10, "unit": "ng/mL"},
      {"measurement": "Tmax Observed", "setting": "[3]; NDA Study2, PO, 6 mg", "result": 6, "unit": "h"},
      {"measurement": "AUC Observed", "setting": "[3]; NDA Study2, PO, 8 mg", "result": 7920, "unit": "ng·h/mL"},
      {"measurement": "Cmax Observed", "setting": "[3]; NDA Study2, PO, 8 mg", "result": 79.20, "unit": "ng/mL"},
      {"measurement": "Tmax Observed", "setting": "[3]; NDA Study2, PO, 8 mg", "result": 6, "unit": "h"},
      {"measurement": "akathisia rates", "setting": "[4]", "result": "dose-dependent"}
    ]}
  ]
}
